Results from patent US20190337971A1, “PANTETHEINE DERIVATIVES FOR THE TREATMENT OF NEUROLOGIC DISORDERS” (Retrophin, Inc., priority 2016, published 2019).
Like-named read-outs stand apart in the source and are kept apart here.

Tests used:
[1] = tested on: PANK2−/− IMR32 cells; assay: Coenzyme A assay in PANK2 silenced cells (LC-MS quantification of free CoA); format: cell-based, human; conditions: Homo sapiens, IMR-32, fold increase in CoA levels relative to controls, treated twice, 24 h + 24 h; for fold induction at 50 µM: compound concentration 50 uM; for fold induction at 1 µM: compound concentration 1 uM
Method: A human neuroblastoma IMR32 cell line (ATCC) with stably PANK2 silencing was obtained by lentiviral-delivered small hairpin RNA and cultured in MEM (Invitrogen) supplemented with 10% fetal bovine serum, 2 mM glutamine, 1% penicillin-streptomycin, 1 mM sodium pyruvate, 1 mM non-essential amino acids, and 1.5 g/l sodium bicarbonate.
A non-silencing shRNA construct (scrambled shRNA) and an empty vector expressing GFP alone were used as negative controls. The GFP tag subcloned into the lentiviral vectors was used to monitor the transfection efficiency.
Three days after transduction medium was removed and replaced with fresh medium containing […] puromycin. […] The level of PANK2 expression in selected clones was assessed by Western Blot analysis.
To quantify CoA, PANK2−/− IMR32 cells were plated on 12-well culture plates (Corning) at a density of 0.2×10^6 cells per well. […] Controls with medium containing 0.1% DMSO without test compounds were also included in each plate. […] Before LC-MS analysis of CoA levels, cells were harvested, counted, and collected in a 15 ml falcon tube and centrifuged at 200×g for 5 min at 4° C. Supernatant was removed and cell pellet was washed in 10 ml of ice-cold PBS. To further confirm that the numbers of cells in each sample were equivalent, an equal fraction of pellet was collected from each sample and subjected to protein determination analysis. After centrifugation and supernatant removal, the cell pellet was rapidly frozen in Liquid Nitrogen and stored at −80° C. until analysis.
Intracellular CoA levels were calculated considering an intracellular volume of 1 million cells=2 μl.
The 1*10^6 cellular pellet was extracted with 120 μl of aqueous 20% TFA.
100 μL samples of supernatant were dried under N2 at 20° C. in the dark.
Samples were re-dissolved in 100 μl of 10 mM NH4^+ AcO^− buffer pH 5.1+IS (Dextrorphan 50 ng/ml), stirred for 2 min, sonicated in ultrasonic bath for 1 min, then stirred again for 1 min, and injected into LC-MS.
LC-MS/MS was performed using an Agilent HPLC (1100 Series, USA). The LC system was interfaced with an API-4000 Q-Trap triple quadrupole mass spectrometer (AB Sciex, Toronto, Canada) equipped with a TurboIonSpray ionization source operating in positive ion mode. Analyst™ software version 1.6 (AB Sciex, Toronto, Canada) was used for data acquisition and processing. CoA was separated using a Luna C18 column (2.0×50 mm; 5 μm particle size), column at 25° C. and flow rate of 0.2 ml/min. Injection volume was 15 μl. The mobile phases consisted of water containing 10 mM ammonium acetate pH 7 (mobile phase A) and MeCN-2-propanol 9:1 (mobile phase B).
Results are expressed as fold increase in CoA levels relative to controls (using LC-MS quantification of free CoA).

[2] = Stability in human whole blood; format: in vitro ADME; conditions: 37° C., up to 60 min
Method: The stability of selected compounds in human whole blood was evaluated according to the following protocol. Compounds and positive control samples were dissolved in 100% DMSO at 3 mM (stock solution). To investigate the stability of the test compounds in whole blood, a 200 μM working solution (WS) in water has been prepared by adding 66.66 μl of each 3 mM stock solution to 933.34 μl of water (6.66% DMSO content). After pre-incubation of the whole blood at 37° C. for 5 min in an eppendorf, 10.5 μl of each working solution were spiked into 689.5 μl of heated blood. The obtained 3 μM solution in blood (0.1% DMSO content) was quickly stirred and 100 μl for each time point were transferred to an eppendorf. Each compound was tested in duplicate at five time points (10, 20, 30, 40 and 60 min). At each time point, the reaction was stopped by quenching the spiked blood (100 μl) with 400 μl of 100% acetonitrile containing 0.1% formic acid. Then samples were centrifuged at 15600 rpm for 15 min at +4° C. and 200 μl of supernatant were transferred to a 96-deepwell plate. Samples were evaporated under N2 and reconstituted in H2O/ACN 0.1% formic Acid (98/2 v/v) containing the appropriate internal standard. Analysis was performed without a calibration curve by using an Acquity-UPLC (Waters) coupled to a triple quadrupole mass spectrometer (SciexAPI4000). Time point 0 was obtained by adding 3 μL of each 200 μM working solution to 997 μL of the supernatant obtaining after centrifugation (15600 rpm for 15 min at +4° C.) of the blank matrix quenched with acetonitrile containing 0.1% formic acid.
Stability was determined based on analysis of disappearance of the compounds as a function of incubation time. Quantification of test compounds was measured as a peak area relative to an internal standard. The elimination constant k and half-life (t1/2) were determined as described above in Example 7.

[3] = Diastereoisomer A (upfield shift in 31P NMR), read-out: t1/2 (h) Human Whole Blood Diastereoisomer A (converted)
[4] = Diastereoisomer B, read-out: t1/2 (h) Human Whole Blood Diastereoisomer B (converted)

Row | Compound | half-life at 3 μM [2, 3] | half-life at 3 μM [2, 4] | fold induction at 50 µM [1] | fold induction at 1 µM [1]
1 | CC(=O)SCCNC(=O)CCNC(=O)[C@@H]1O[P@](=O)(OCOC(=O)NCCOC(=O)C(C)(C)C)OCC1(C)C [R1031, 2-((((((2R,4R)-4-((3-((2-(acetylthio)ethyl)amino)-3-oxopropyl)carbamoyl)-5,5-dimethyl-2-oxido-1,3,2-dioxaphosphinan-2-yl)oxy)methoxy)carbonyl)amino)ethyl pivalate] | 0.41 h | 0.25 h | 23.2 | 
2 | CC(=O)SCCNC(=O)CCNC(=O)[C@@H]1OP(=O)(OCOC(=O)N[C@@H](CSC(=O)C(C)(C)C)C(=O)O)OCC1(C)C (stereo partly drawn) [R1013, N-(((((4R)-4-((3-((2-(acetylthio)ethyl)amino)-3-oxopropyl)carbamoyl)-5,5-dimethyl-2-oxido-1,3,2-dioxaphosphinan-2-yl)oxy)methoxy)carbonyl)-S-pivaloyl-L-cysteine] | 0.78 h | 0.6 h | 1 | 
3 | CC(=O)SCCNC(=O)CCNC(=O)[C@@H]1O[P@](=O)(OCOC(=O)c2cc(C(C)(C)C)n[nH]2)OCC1(C)C [R1019, (((2R,4R)-4-((3-((2-(acetylthio)ethyl)amino)-3-oxopropyl)carbamoyl)-5,5-dimethyl-2-oxido-1,3,2-dioxaphosphinan-2-yl)oxy)methyl 3-(tert-butyl)-1H-pyrazole-5-carboxylate] |  | < 0.16 h |  | 28.8
4 | CC(=O)SCCNC(=O)CCNC(=O)[C@@H]1OP(=O)(OCOC(=O)N[C@@H](CSC(=O)C(C)(C)C)C(=O)OCc2ccccc2)OCC1(C)C (stereo partly drawn) [R1029, benzyl N-(((((4R)-4-((3-((2-(acetylthio)ethyl)amino)-3-oxopropyl)carbamoyl)-5,5-dimethyl-2-oxido-1,3,2-dioxaphosphinan-2-yl)oxy)methoxy)carbonyl)-S-pivaloyl-L-cysteinate] |  |  | 120 | 
5 | COc1ccc(C(=O)OCOP2(=O)OCC(C)(C)[C@H](C(=O)NCCC(=O)NCCSC(C)=O)O2)cc1 (stereo partly drawn) [R1035, (((4R)-4-((3-((2-(acetylthio)ethyl)amino)-3-oxopropyl)carbamoyl)-5,5-dimethyl-2-oxido-1,3,2-dioxaphosphinan-2-yl)oxy)methyl 4-methoxybenzoate] |  |  |  | 18
6 | COC(=O)[C@H](C)N[P@]1(=O)OCC(C)(C)[C@H](C(=O)NCCC(=O)NCCSC(C)=O)O1 [R1004, methyl ((2S,4R)-4-((3-((2-(acetylthio)ethyl)amino)-3-oxopropyl)carbamoyl)-5,5-dimethyl-2-oxido-1,3,2-dioxaphosphinan-2-yl)-L-alaninate] |  |  | 2.1 | 
7 | CC(=O)SCCNC(=O)CCNC(=O)[C@@H]1OP(=O)(OCOC(=O)c2cc(C(C)(C)C)nn2C)OCC1(C)C (stereo partly drawn) [R1010, (((4R)-4-((3-((2-(acetylthio)ethyl)amino)-3-oxopropyl)carbamoyl)-5,5-dimethyl-2-oxido-1,3,2-dioxaphosphinan-2-yl)oxy)methyl 3-(tert-butyl)-1-methyl-1H-pyrazole-5-carboxylate] |  |  |  | 200
8 | CC(=O)SCCNC(=O)CCNC(=O)[C@@H]1O[P@@](=O)(OCOC(=O)OC(C)C)OCC1(C)C [R1017, S-(2-(3-((2S,4R)-2-(((isopropoxycarbonyl)oxy)methoxy)-5,5-dimethyl-2-oxido-1,3,2-dioxaphosphinane-4-carboxamido)propanamido)ethyl) ethanethioate] |  |  |  | 18.4
9 | CC(=O)SCCNC(=O)CCNC(=O)[C@@H]1OP(=O)(OCOC(=O)NC(C)(C)COC(=O)C(C)(C)C)OCC1(C)C (stereo partly drawn) [R1028, 2-((((((4R)-4-((3-((2-(acetylthio)ethyl)amino)-3-oxopropyl)carbamoyl)-5,5-dimethyl-2-oxido-1,3,2-dioxaphosphinan-2-yl)oxy)methoxy)carbonyl)amino)-2-methylpropyl pivalate] |  |  | 5.7 | 

Further lines, with some results ahead:

Row | half-life at 3 μM [2, 3] | half-life at 3 μM [2, 4] | Compound | fold induction at 50 µM [1] | fold induction at 1 µM [1]
10 | 0.42 h | < 0.16 h | CC(=O)SCCNC(=O)CCNC(=O)[C@@H]1OP(=O)(OCOC(=O)c2ccnn2C)OCC1(C)C (stereo partly drawn) [R1011, (((4R)-4-((3-((2-(acetylthio)ethyl)amino)-3-oxopropyl)carbamoyl)-5,5-dimethyl-2-oxido-1,3,2-dioxaphosphinan-2-yl)oxy)methyl 1-methyl-1H-pyrazole-5-carboxylate] | 102 | 
11 | 0.65 h |  | COC(=O)[C@H](CSC(=O)C(C)(C)C)NC(=O)OCOP1(=O)OCC(C)(C)[C@H](C(=O)NCCC(=O)NCCSC(C)=O)O1 (stereo partly drawn) [R1020, methyl N-(((((4R)-4-((3-((2-(acetylthio)ethyl)amino)-3-oxopropyl)carbamoyl)-5,5-dimethyl-2-oxido-1,3,2-dioxaphosphinan-2-yl)oxy)methoxy)carbonyl)-S-pivaloyl-L-cysteinate] | 74.2 | 
12 | < 0.16 h | < 0.16 h | CC(=O)OCOP1(=O)OCC(C)(C)[C@H](C(=O)NCCC(=O)NCCSC(C)=O)O1 (stereo partly drawn) [R1022, (((4R)-4-((3-((2-(acetylthio)ethyl)amino)-3-oxopropyl)carbamoyl)-5,5-dimethyl-2-oxido-1,3,2-dioxaphosphinan-2-yl)oxy)methyl acetate] | 114 | 
13 |  | > 1 h | COC(=O)[C@@H](N[P@]1(=O)OCC(C)(C)[C@H](C(=O)NCCC(=O)NCCSC(C)=O)O1)C(C)C [R1015, methyl ((2S,4R)-4-((3-((2-(acetylthio)ethyl)amino)-3-oxopropyl)carbamoyl)-5,5-dimethyl-2-oxido-1,3,2-dioxaphosphinan-2-yl)-L-valinate] | 2.1 | 
14 | 0.41 h |  | CC(=O)SCCNC(=O)CCNC(=O)[C@@H]1OP(=O)(OCOC(=O)NC(C)(C)COC(=O)[C@@H](N)C(C)C)OCC1(C)C (stereo partly drawn) [R1012, 2-((((((4R)-4-((3-((2-(acetylthio)ethyl)amino)-3-oxopropyl)carbamoyl)-5,5-dimethyl-2-oxido-1,3,2-dioxaphosphinan-2-yl)oxy)methoxy)carbonyl)amino)-2-methylpropyl L-valinate] | 1.5 | 
15 | 0.31 h | 0.17 h | CC(=O)SCCNC(=O)CCNC(=O)[C@@H]1OP(=O)(OCOC(=O)NCCSC(=O)C(C)(C)C)OCC1(C)C (stereo partly drawn) [R1023, S-(2-((((((4R)-4-((3-((2-(acetylthio)ethyl)amino)-3-oxopropyl)carbamoyl)-5,5-dimethyl-2-oxido-1,3,2-dioxaphosphinan-2-yl)oxy)methoxy)carbonyl)amino)ethyl) 2,2-dimethylpropanethioate] | 17 | 
